From ChEMBL document CHEMBL3259599, “Novel colchicine-site binders with a cyclohexanedione scaffold identified through a ligand-based virtual screening approach” (J Med Chem, 2014)
pIC50: −log10 of the molar value. Activity calls are given as the source filed them. The calls are words filed in the database; no cut-off is given here.

How the values were obtained:
[1] = Antiproliferative activity against MBEC after 3 days by coulter counter analysis; type: functional, Mus musculus
CCRF-CEM = experiment: Antiproliferative activity against human CEM cells after 48 to 96 hrs by coulter counter analysis; type: functional, cell-based
L1210 = experiment: Antiproliferative activity against mouse L1210 cells after 48 to 96 hrs by coulter counter analysis; type: functional, cell-based
[2] = Antiproliferative activity against HMEC1 after 4 days by coulter counter analysis; type: functional; settings: Homo sapiens, HMEC-1, 96 h
HeLa = experiment: Antiproliferative activity against human HeLa cells after 4 days by coulter counter analysis; type: functional, cell-based; settings: 96 h
[3] = Antiproliferative activity against BAEC after 3 days by coulter counter analysis; type: functional; settings: Bos taurus, 72 h
Tubulin (Bos taurus) [4] = molecular target: T1, Tubulin (Bos taurus) (UniProt Q6B856+Q862L2+Q862F3); experiment: Displacement of R-PT from calf brain tubulin at 25 degC by fluorescence spectroscopic analysis
Tubulin (Bos taurus) [5] = molecular target: T1, Tubulin (Bos taurus); experiment: Displacement of MTC from calf brain tubulin colchicine binding site at 20 uM by fluorescence spectroscopic analysis
MDA-MB-231 [6] = experiment: Antimigratory activity against human MDA-MB-231 cells at 2 to 10 uM after 17 hrs by Transwell assay; type: functional, cell-based
Serum = experiment: (§1) Metabolic stability in 10% human serum assessed as compound remaining at 100 uM measured after 3 hrs by HPLC analysis; type: ADME; settings: serum, 3 h, 100 µM
Liver = experiment: (§2) Metabolic stability in 50% mouse liver extract assessed as compound remaining at 100 uM measured after 3 hrs by HPLC analysis; type: ADME, tissue-based; settings: 3 h, 100 µM
MDA-MB-231 [7] = experiment: Antiinvasive activity against human MDA-MB-231 cells at 2 to 10 uM after 17 hrs by Transwell assay; type: functional, cell-based
Rattus norvegicus = organism: Rattus norvegicus; experiment: Binding affinity to rat brain tubulin at 37 degC after 1 to 2 mins by DEAE cellulose filter paper method
Tubulin (Homo sapiens) [8] = molecular target: T2, Tubulin (Homo sapiens) (UniProt P68371+Q9H4B7+P0DPH7+P68366+Q13509+Q71U36+P04350+Q3ZCM7+P07437+P68363+Q9BQE3+Q6PEY2+Q13885+Q9BVA1+Q9BUF5)
Description: Binding affinity to tubulin (unknown origin)

[9] = Cell cycle arrest in HMEC1 cells assessed as accumulation at G2/M phase at 0.03 uM after 24 hrs by propidium iodide staining-based flow cytometric analysis; type: functional; settings: Homo sapiens, HMEC-1
MDA-MB-231 [10] = experiment: Antiinvasive activity against human MDA-MB-231 cells at 0.08 uM after 17 hrs by Transwell assay; type: functional, cell-based
MDA-MB-231 [11] = experiment: Antiproliferative activity against human MDA-MB-231 cells at 0.08 uM after 17 hrs; type: functional, cell-based
MDA-MB-231 [12] = experiment: Antimigratory activity against human MDA-MB-231 cells at 0.08 uM after 17 hrs by Transwell assay; type: functional, cell-based
[13] = Cell cycle arrest in HMEC1 cells assessed as accumulation at subG1 phase at 0.03 uM after 24 hrs by propidium iodide staining-based flow cytometric analysis; type: functional; settings: Homo sapiens, HMEC-1
MDA-MB-231 [14] = experiment: Competitive binding affinity to beta-tubulin in human MDA-MB-231 cells assessed as inhibition of protein-N/N'-ethylene-bis(iodoacetamide) adduct formation at 0.5 uM preincubated for 16 hrs followed by N/N'-ethylene-bis(iodoacetamide) formation measured after 1.5 hrs by Western blot analysis; type: cell-based
HMEC-1 [15] = experiment: Antivascular activity in HMEC1 cells assessed as destruction of cord like structure at 0.3 to 1 uM after 90 mins by matrigel assay; type: functional, cell-based; settings: Homo sapiens
[16] = Cell cycle arrest in HMEC1 cells assessed as accumulation at G2/M phase at 1 uM after 24 hrs by propidium iodide staining-based flow cytometric analysis; type: functional; settings: Homo sapiens, HMEC-1
[17] = Cell cycle arrest in HMEC1 cells assessed as accumulation at subG1 phase at 1 uM after 24 hrs by propidium iodide staining-based flow cytometric analysis; type: functional; settings: Homo sapiens, HMEC-1
MDA-MB-231 [18] = experiment: Competitive binding affinity to beta-tubulin in human MDA-MB-231 cells assessed as inhibition of protein-N/N'-ethylene-bis(iodoacetamide) adduct formation at 10 uM preincubated for 16 hrs followed by N/N'-ethylene-bis(iodoacetamide) formation measured after 1.5 hrs by Western blot analysis; type: cell-based
[19] = as §1; type: ADME; settings: 10% human serum, read-out: Stability
MDA-MB-231 [20] = experiment: Antiproliferative activity against human MDA-MB-231 cells at 0.4 uM after 17 hrs; type: functional, cell-based
[21] = as §2; type: ADME, tissue-based; settings: 50% mouse liver extract, read-out: Stability
MDA-MB-231 [22] = experiment: Antiinvasive activity against human MDA-MB-231 cells at 0.4 uM after 17 hrs by Transwell assay; type: functional, cell-based
HMEC-1 [23] = experiment: Antivascular activity in HMEC1 cells assessed as destruction of cord like structure at 3 uM after 90 mins by matrigel assay; type: functional, cell-based; settings: Homo sapiens
HMEC-1 [24] = experiment: Induction of apoptosis in HMEC1 at 0.3 uM after 24 hrs by propidium iodide staining-based flow cytometric analysis; type: functional; settings: Homo sapiens
Tubulin (Homo sapiens) [25] = molecular target: T2, Tubulin (Homo sapiens); experiment: Binding affinity to tubulin in human MDA-MB-231 cells assessed as inhibition of mitotic spindle formation at 1 uM after 8 hrs by DAPI staining-based fluorescence microscopic analysis; type: cell-based
MDA-MB-231 [26] = experiment: Antimigratory activity against human MDA-MB-231 cells at 0.4 uM after 17 hrs by Transwell assay; type: functional, cell-based

SMILES	pIC50 [1]	pIC50 (CCRF-CEM)	pIC50 (L1210)	pIC50 [2]	pIC50 (HeLa)	pIC50 [3]	further results
COc1cccc(C2CC(=O)C(=C(C)Nc3ccccc3OC)C(=O)C2)c1 (centres undefined)	6.39	6.62	6.68	6.52	6.16	6.64	Ka (Tubulin (Bos taurus) [4]): 7.5 ×10⁶ /M; inhibition (Tubulin (Bos taurus) [5]): Active
CCC(Nc1ccccc1O)=C1C(=O)CC(c2ccccc2)CC1=O (centres undefined)	4.89	4.82	4.89	4.66	4.96	4.46	inhibition (MDA-MB-231 [6]): inactive; Stability (Serum): Unstable; Stability (Liver): Unstable; inhibition (MDA-MB-231 [7]): inactive; inhibition (Tubulin (Bos taurus) [5]): Active
COc1cc([C@@H]2c3cc4c(cc3[C@H](O)[C@H]3COC(=O)[C@H]23)OCO4)cc(OC)c1OC							Ka (Rattus norvegicus): 1.8 ×10⁶ /M
COC(=O)Nc1nc2cc(C(=O)c3cccs3)ccc2[nH]1							Ka (Tubulin (Homo sapiens) [8]): 4 ×10⁵ /M
COc1cc2c(c(OC)c1OC)-c1ccc(OC)c(=O)cc1[C@@H](NC(C)=O)CC2 [COLCHICINE]	7.51		8.00			8.16	Activity [9]: Active; inhibition (MDA-MB-231 [10]): Active; Activity (MDA-MB-231 [11]): Active; inhibition (MDA-MB-231 [12]): Active; Activity [13]: Active; inhibition (MDA-MB-231 [14]): Active; Activity (HMEC-1 [15]): Active
CCC(Nc1ccccc1OC)=C1C(=O)CC(c2ccccc2)CC1=O (centres undefined)	5.85	5.64	5.82	5.85	5.37	5.92	Ka (Tubulin (Bos taurus) [4]): 7.1 ×10⁶ /M; inhibition (Tubulin (Bos taurus) [5]): Active
COc1ccccc1NC(C)=C1C(=O)CC(c2cccc(C)c2)CC1=O (centres undefined)	6.38	6.51	6.77	6.48	6.10	6.59	
CCC(Nc1cccc(O)c1)=C1C(=O)CC(c2ccccc2)CC1=O (centres undefined)	4.92	4.32	4.82	4.89	4.12	5.11	
CC(Nc1c(F)cccc1F)=C1C(=O)CC(c2ccccc2)CC1=O (centres undefined)	5.04	4.68	4.96	5.18	4.77	5.08	
CCC(Nc1ccc(OC)c(OC)c1)=C1C(=O)CC(c2ccccc2)CC1=O (centres undefined)	< 4.00	< 4.00	< 4.00	< 4.00	< 4.00	< 4.00	
COc1ccc(C2CC(=O)C(=C(C)Nc3ccccc3OC)C(=O)C2)cc1 (centres undefined)	< 4.00	< 4.00	< 4.00	< 4.00	< 4.00	< 4.00	
COc1ccccc1NC(C)=C1C(=O)CC(c2ccc(C)cc2)CC1=O (centres undefined)	5.04	< 4.00	< 4.00	4.96	4.05	5.08	
COc1ccccc1NC(C)=C1C(=O)CC(c2ccc(Cl)cc2)CC1=O (centres undefined)	4.34	4.55	4.66	4.26	4.24	4.38	
CC(Nc1ccccc1C)=C1C(=O)CC(c2cccc(O)c2)CC1=O (centres undefined)	5.60	5.21	5.46	5.66	5.39	5.68	
COc1ccccc1NC(C)=C1C(=O)CC(c2ccccc2F)CC1=O (centres undefined)	5.27	5.31	5.20	5.37	5.32	5.57	
COc1ccccc1NC(C)=C1C(=O)CC(c2ccccc2C)CC1=O (centres undefined)	5.17	5.14	4.96	5.24	4.89	5.49	
CCCC(Nc1ccccc1OC)=C1C(=O)CC(c2ccccc2)CC1=O (centres undefined)	4.57	4.39	4.44	4.51	4.23	4.80	
CC(Nc1ccccc1C)=C1C(=O)CC(c2ccccc2)CC1=O (centres undefined)	6.49	6.17	6.52	6.59	6.32	6.77	Activity [16]: Active; Activity [17]: Active
COc1ccccc1NC(C)=C1C(=O)CC(c2ccccc2)CC1=O (centres undefined)	6.92	6.74	6.80	7.05	6.74	7.05	inhibition (MDA-MB-231 [18]): Active; remaining at 3 h, 100 µM [19]: 70%; Activity (MDA-MB-231 [20]): Active; remaining at 3 h, 100 µM [21]: > 90%; Ka (Tubulin (Bos taurus) [4]): 9.6 ×10⁶ /M; inhibition (MDA-MB-231 [22]): Active; Activity (HMEC-1 [23]): Active; Activity (HMEC-1 [24]): Active; inhibition (Tubulin (Homo sapiens) [25]): Active; Activity [16]: Active; Activity [17]: Active; inhibition (MDA-MB-231 [26]): Active; inhibition (Tubulin (Bos taurus) [5]): Active
COc1ccc(OC)c(NC(C)=C2C(=O)CC(c3ccccc3)CC2=O)c1 (centres undefined)	5.49	< 5.22	4.44	5.59	4.34	5.59	
COc1ccccc1NC(C)=C1C(=O)CC(c2c(C)cccc2C)CC1=O (centres undefined)	4.41	4.64	4.62	4.46	4.26	4.39	
